# Experimental data from the supplement of paper PMC11208160.
# Test: recombinant barcode read abundance after kanamycin selection (control-corrected) (log10(CPM+1)); higher = more efficient recombination; sequences stand for … in AGTGCAGAGAAAATCGGCCAGTTTTCTCTGCCTGCAGTCCGCATGCCGT…AGATTTATGCAGCGGACTGCCTTTCTCCCAAAGTGATAAACCGGACAGTATCATGGACCGGTTTTCCCGGTAATCCGTATTTGCAAGGTTGGTTTCACT; site = the 11-nt target
# Summary of the method: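 Oligos holding a promoter, target, barcode and the J23119-driven first 104 bases of the bridge RNA were Gibson-cloned into a vector that supplied the other 73 bp plus a T7-inducible recombinase. This library was co-electroporated with a donor plasmid into E. coli. Two replicates went on chloramphenicol/ampicillin LB agar (control) and two on chloramphenicol/ampicillin/kanamycin with 0.1 mM IPTG. Recombination efficiency is read from averaged, control-corrected barcode counts per million at recombinant junctions, reported as log10(CPM+1).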
# 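Further: IS621 recombinase and bridge RNA in Escherichia coli cells.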
row,Sequence,recombinant barcode read abundance (log10)
1,CAGACTTCTTGGGTTCTAACCTGTTGCCT (site CGGACTTCTAG),0.039
2,CAGACTTCTTGGGTTCTAACCTGTTGCCT (site CTGACTTCTAG),0.0642
3,CAGAGCCCTTGGGTTCTAACCTGTTGCTG (site CAGAGCCCTCA),1.84
4,CAGAGCCCTTGGGTTCTAACCTGTTGCTG (site CTGAGCCCTCA),0.0157
5,CAGAGGCCTTGGGTTCTAACCTGTTGCCT (site CAGAGGCCTAG),0.224
6,CAGAGGCCTTGGGTTCTAACCTGTTGCCT (site CAGCGGCCTAG),0.376
7,CAGAGGCCTTGGGTTCTAACCTGTTGCCT (site CAGGGGCCTAG),0.149
8,CAGAGGCCTTGGGTTCTAACCTGTTGCCT (site CAGTGGCCTAG),0
9,CAGAGGTCTTGGGTTCTAACCTGTTGCCT (site CAGAGCTCTAG),0
10,CAGAGGTCTTGGGTTCTAACCTGTTGCCT (site CAGAGGTCTAG),1.39
11,CAGCAAGCTTGGGTTCTAACCTGTTGCCT (site CAGCAAGCTAG),1.17
12,CAGCAAGCTTGGGTTCTAACCTGTTGCCT (site CAGTACGCTAG),0.0513
13,CAGCACTCTTGGGTTCTAACCTGTTGCTA (site CAGCACTCTTA),2.12
14,CAGCACTCTTGGGTTCTAACCTGTTGCTA (site CAGGACTCTAA),0.201
15,CAGCATACTTGGGTTCTAACCTGTTGCCT (site CAGCATACTAG),1.74
16,CAGCATACTTGGGTTCTAACCTGTTGCCT (site CCGCATACTAG),0.159
17,CAGCATACTTGGGTTCTAACCTGTTGCCT (site CGGCATACTAG),0.215
18,CAGCATACTTGGGTTCTAACCTGTTGCCT (site CTGCATACTAG),0.0255
19,CAGCCCTCTTGGGTTCTAACCTGTTGCTA (site CAGCCCTCTTA),2.75
20,CAGCCCTCTTGGGTTCTAACCTGTTGCTA (site CCGCCCTCTAA),0.188
21,CAGCCTTCTTGGGTTCTAACCTGTTGCTT (site CAGCCTTCTAA),0.718
22,CAGCCTTCTTGGGTTCTAACCTGTTGCTT (site CATCCTCCTAA),0.0417

row,Sequence,recombinant barcode read abundance (log10)
1,CAGCGTGCTTGGGTTCTAACCTGTTGCCT (site CAGCGTGCTAG),0.838
2,CAGCGTGCTTGGGTTCTAACCTGTTGCCT (site CCGCGTGCTAG),0.318
3,CAGCGTGCTTGGGTTCTAACCTGTTGCCT (site CGGCGTGCTAG),0.216
4,CAGCGTGCTTGGGTTCTAACCTGTTGCCT (site CTGCGTGCTAG),0.612
5,CAGGAACCTTGGGTTCTAACCTGTTGCCT (site AAGGAACCTAG),0.15
6,CAGGAACCTTGGGTTCTAACCTGTTGCCT (site CAGGAACCTAG),2.01
7,CAGGAACCTTGGGTTCTAACCTGTTGCCT (site GAGGAACCTAG),0.235
8,CAGGAACCTTGGGTTCTAACCTGTTGCCT (site TAGGAACCTAG),0.216
9,CAGGCCACTTGGGTTCTAACCTGTTGCCT (site CAGGCCACTAG),0.945
10,CAGGCCACTTGGGTTCTAACCTGTTGCCT (site CCGGCCACTAG),0.0473
11,CAGGCCACTTGGGTTCTAACCTGTTGCCT (site CGGGCCACTAG),1.04
12,CAGGCCACTTGGGTTCTAACCTGTTGCCT (site CTGGCCACTAG),0.357
13,CAGTACTCTTGGGTTCTAACCTGTTGCCT (site CAGTAATCTAG),0.122
14,CAGTACTCTTGGGTTCTAACCTGTTGCCT (site CAGTACTCTAG),2.29
15,CAGTACTCTTGGGTTCTAACCTGTTGCCT (site CAGTAGTCTAG),0.1
16,CAGTACTCTTGGGTTCTAACCTGTTGCCT (site CAGTATTCTAG),0.0289
17,CAGTGGCCTTGGGTTCTAACCTGTTGCCT (site CAGAGGCCTAG),0.0837
18,CAGTGGCCTTGGGTTCTAACCTGTTGCCT (site CAGCGGCCTAG),0.124
19,CAGTGGCCTTGGGTTCTAACCTGTTGCCT (site CAGGGGCCTAG),0.234
20,CAGTGGCCTTGGGTTCTAACCTGTTGCCT (site CAGTGGCCTAG),0.132
21,CAGTTCGCTTGGGTTCTAACCTGTTGCCT (site CAGTTAGCTAG),0.141
22,CAGTTCGCTTGGGTTCTAACCTGTTGCCT (site CAGTTCGCTAG),1.6

row,Sequence,recombinant barcode read abundance (log10)
1,CAGTTCGCTTGGGTTCTAACCTGTTGCCT (site CAGTTGGCTAG),0.0461
2,CAGTTCGCTTGGGTTCTAACCTGTTGCCT (site CAGTTTGCTAG),0.0585
3,CAGTTTGCTTGGGTTCTAACCTGTTGCCT (site CAGTTAGCTAG),0.102
4,CAGTTTGCTTGGGTTCTAACCTGTTGCCT (site CAGTTCGCTAG),0.172
5,CAGTTTGCTTGGGTTCTAACCTGTTGCCT (site CAGTTGGCTAG),0
6,CAGTTTGCTTGGGTTCTAACCTGTTGCCT (site CAGTTTGCTAG),0.512
7,CATAACGCTTGGGTTCTAACCTGTTGCCT (site CATAACGCTAG),1.18
8,CATAACGCTTGGGTTCTAACCTGTTGCCT (site GCATCTACTTA),0.102
9,CATAGAGCTTGGGTTCTAACCTGTTGCCT (site CATAGAGCTAG),0.648
10,CATAGAGCTTGGGTTCTAACCTGTTGCCT (site CATAGGGCTCG),0.215
11,CATAGGGCTTGGGTTCTAACCTGTTGCCG (site CATAGAGCTAG),0.0324
12,CATAGGGCTTGGGTTCTAACCTGTTGCCG (site CATAGGGCTCG),1.03
13,CATAGTCCTTGGGTTCTAACCTGTTGCCA (site CATAGTCCTTG),0.299
14,CATAGTCCTTGGGTTCTAACCTGTTGCCA (site GTACAATCTCT),0.112
15,CATCAGCCTTGGGTTCTAACCTGTTGCGT (site CATCAGCCTAC),1.63
16,CATCAGCCTTGGGTTCTAACCTGTTGCGT (site TATCAGCCTAA),0.174
17,CATCCATCTTGGGTTCTAACCTGTTGCAT (site CATCCATCTAT),0.883
18,CATCCATCTTGGGTTCTAACCTGTTGCAT (site TCGAGGCCTTA),0.328
19,CATCCTCCTTGGGTTCTAACCTGTTGCTT (site CAGCCTTCTAA),0.103
20,CATCCTCCTTGGGTTCTAACCTGTTGCTT (site CATCCTCCTAA),0.0487
21,CATCGATCTTGGGTTCTAACCTGTTGCGT (site CATCGATCTAC),1.6
22,CATCGATCTTGGGTTCTAACCTGTTGCGT (site CTTTGATCTAC),0.0816

row,Sequence,recombinant barcode read abundance (log10)
1,CATCGGACTTGGGTTCTAACCTGTTGCGA (site AGGGCACCTCT),0.112
2,CATCGGACTTGGGTTCTAACCTGTTGCGA (site CATCGGACTTC),1.35
3,CATGAGACTTGGGTTCTAACCTGTTGCGG (site CATGAGACTCC),2.18
4,CATGAGACTTGGGTTCTAACCTGTTGCGG (site GCGATCCCTAA),0.0802
5,CATGAGCCTTGGGTTCTAACCTGTTGCCT (site CATAAGCCTAG),0.694
6,CATGAGCCTTGGGTTCTAACCTGTTGCCT (site CATCAGCCTAG),0.0278
7,CATGAGCCTTGGGTTCTAACCTGTTGCCT (site CATGAGCCTAG),2.23
8,CATGAGCCTTGGGTTCTAACCTGTTGCCT (site CATTAGCCTAG),0.196
9,CATGATTCTTGGGTTCTAACCTGTTGCCT (site CATAATTCTAG),0.0239
10,CATGATTCTTGGGTTCTAACCTGTTGCCT (site CATCATTCTAG),0.087
11,CATGATTCTTGGGTTCTAACCTGTTGCCT (site CATGATTCTAG),1.05
12,CATGATTCTTGGGTTCTAACCTGTTGCCT (site CATTATTCTAG),0.0435
13,CATGCTCCTTGGGTTCTAACCTGTTGCAT (site CATGCTCCTAG),0.168
14,CATGCTCCTTGGGTTCTAACCTGTTGCAT (site CATGCTCCTAT),0.194
15,CATGCTCCTTGGGTTCTAACCTGTTGCCT (site CATGCTCCTAG),0.353
16,CATGCTCCTTGGGTTCTAACCTGTTGCCT (site CATGCTCCTAT),0.512
17,CATTAGCCTTGGGTTCTAACCTGTTGCCT (site CATAAGCCTAG),0.0881
18,CATTAGCCTTGGGTTCTAACCTGTTGCCT (site CATCAGCCTAG),0.26
19,CATTAGCCTTGGGTTCTAACCTGTTGCCT (site CATGAGCCTAG),0.0107
20,CATTAGCCTTGGGTTCTAACCTGTTGCCT (site CATTAGCCTAG),0.583
